Data reported in PMC9299836 (eLife, 2022).
Several values for one entry are separate records, joined by “and”; a condition that tells them apart may be missing. Equal values may be shown once.

Key:
mGluR2 [1] = target: T1, mGluR2 (Mus musculus, UniProt Q14BI2); assay: Functional calcium imaging, SNAP-mGluR2 (no FLAG-tag) with chimeric G protein Gqo5 in HEK293T cells; format: cell-based; set-up: Full length mGluR2 construct with an amber codon (TAG) mutation of amino acid A548 (azi-CRD) or N-terminal SNAP-tag (SNAP-mGluR2); host or cells: HEK293T; settings: modulator alone; precluded analysis of glutamate potency and efficacy
mGluR2 [2] = target: T1, mGluR2; assay: Live-cell FRET, SNAP-m2 (VFT domain) inter-subunit sensor in HEK293T cells; settings: for SNAP-m2 FRET response (PAM DRC) / SNAP-m2 FRET response (PAM DRC), Mean: Glutamate + 5μM LY487379; for SNAP-m2 FRET response (PAM DRC): individual cells, normalized to 1mM glutamate;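 as to all read-outs here: apparent FRET efficiency from whole-membrane ROIs of single cells, corrected for donor bleed-through and background, ΔFRET as treatment minus pretreatment signal, recorded at room temperature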
mGluR2 [3] = target: mGluR2 (Mus musculus, UniProt Q14BI2, A548F); assay: Live-cell FRET, azi-CRD (cysteine-rich domain) sensor in HEK293T cells; settings: for Mean normalized FRET response, azi-CRD PAM DRC: glutamate + 5μM LY487379, maximal response normalized to 1mM glutamate
mGluR2 [4] = target: mGluR2 (Mus musculus, UniProt Q14BI2, INS715F); assay: Live-cell FRET, azi-ECL2 (7TM domain, extracellular loop 2) sensor in HEK293T cells; settings: for Mean normalized azi-ECL2 FRET response: glutamate + 5μM modulator, maximal response normalized to 1mM glutamate;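 as to all read-outs here: Cy3/Cy5 click-labeled sensor, whole-membrane ROIs per cell, apparent FRET after bleed-through correction, ΔFRET as treatment minus pre-treatment signal, at room temperature, at least three biological replicates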
[5] = 5μM LY487379, ([1 mM glutamate + modulator] - [1 mM glutamate]) × 100

Chain of mGluR2 (Mus musculus, UniProt Q14BI2, A548F) (Q14BI2 19-872 A548F): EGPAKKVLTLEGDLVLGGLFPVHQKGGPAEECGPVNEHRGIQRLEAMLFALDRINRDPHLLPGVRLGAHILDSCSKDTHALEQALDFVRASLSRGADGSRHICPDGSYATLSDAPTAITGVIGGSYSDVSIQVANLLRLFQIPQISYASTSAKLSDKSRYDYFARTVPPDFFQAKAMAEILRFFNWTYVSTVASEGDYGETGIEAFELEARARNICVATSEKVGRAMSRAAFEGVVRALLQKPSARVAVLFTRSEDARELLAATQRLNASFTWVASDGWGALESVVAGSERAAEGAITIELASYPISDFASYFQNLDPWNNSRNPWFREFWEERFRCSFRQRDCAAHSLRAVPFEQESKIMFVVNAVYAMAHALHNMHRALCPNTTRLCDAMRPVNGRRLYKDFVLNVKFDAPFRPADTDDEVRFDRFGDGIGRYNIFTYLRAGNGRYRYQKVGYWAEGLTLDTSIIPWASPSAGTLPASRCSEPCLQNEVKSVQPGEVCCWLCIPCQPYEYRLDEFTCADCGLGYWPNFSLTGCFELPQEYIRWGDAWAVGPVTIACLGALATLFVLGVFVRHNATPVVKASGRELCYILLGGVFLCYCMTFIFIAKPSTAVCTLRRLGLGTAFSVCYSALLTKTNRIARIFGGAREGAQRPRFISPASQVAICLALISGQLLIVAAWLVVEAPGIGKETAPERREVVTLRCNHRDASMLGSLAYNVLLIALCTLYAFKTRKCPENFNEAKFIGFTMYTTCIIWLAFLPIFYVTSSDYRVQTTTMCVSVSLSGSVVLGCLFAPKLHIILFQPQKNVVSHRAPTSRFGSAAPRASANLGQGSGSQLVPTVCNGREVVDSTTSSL
T1 sequence (Q14BI2 19-872): as the sequence (Q14BI2 19-872 A548F) above, with F530A counted along it
Chain of mGluR2 (Mus musculus, UniProt Q14BI2, INS715F) (Q14BI2 with tags, fused parts or gaps INS715F): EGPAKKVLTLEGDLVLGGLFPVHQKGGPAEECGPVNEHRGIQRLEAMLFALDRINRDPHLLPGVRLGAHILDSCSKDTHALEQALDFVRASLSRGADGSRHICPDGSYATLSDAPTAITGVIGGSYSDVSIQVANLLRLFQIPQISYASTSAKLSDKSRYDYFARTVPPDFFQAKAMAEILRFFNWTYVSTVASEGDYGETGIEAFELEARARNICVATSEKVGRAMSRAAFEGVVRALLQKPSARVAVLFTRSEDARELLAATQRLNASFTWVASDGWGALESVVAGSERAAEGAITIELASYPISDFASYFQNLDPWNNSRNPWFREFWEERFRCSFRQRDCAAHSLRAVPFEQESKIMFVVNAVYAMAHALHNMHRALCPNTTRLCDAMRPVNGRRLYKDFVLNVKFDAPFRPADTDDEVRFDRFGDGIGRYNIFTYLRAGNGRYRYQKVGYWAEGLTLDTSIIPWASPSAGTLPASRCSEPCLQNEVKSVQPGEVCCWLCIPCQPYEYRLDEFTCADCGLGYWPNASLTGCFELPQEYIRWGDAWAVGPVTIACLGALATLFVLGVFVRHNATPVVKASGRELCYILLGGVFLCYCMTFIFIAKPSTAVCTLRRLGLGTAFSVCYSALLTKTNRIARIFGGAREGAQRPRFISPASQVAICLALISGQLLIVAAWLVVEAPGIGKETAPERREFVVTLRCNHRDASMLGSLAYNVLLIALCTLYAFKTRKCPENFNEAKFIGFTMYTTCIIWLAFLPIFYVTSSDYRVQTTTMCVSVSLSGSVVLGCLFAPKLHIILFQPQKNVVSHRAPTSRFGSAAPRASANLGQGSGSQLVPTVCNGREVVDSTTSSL

## COc1ccccc1Oc1ccc(N(Cc2cccnc2)S(=O)(=O)CC(F)(F)F)cc1 [LY487379, N -(4-(2-Methoxyphenoxy)phenyl)-N -(2,2,2− trifluoroethylsulfonyl)pyrid-3-ylmethylamine]
mGluR2 [1]
  Effect of modulator itself on intracellular calcium flux: Direct activation of mGluR2
mGluR2 [2]; [5]
  SNAP-m2 - ΔEfficacy, Mean ΔEfficacy: 7.324
mGluR2 [2]; log[Glutamate] (M) -3
  SNAP-m2 FRET response (PAM DRC): -1.073
  SNAP-m2 FRET response (PAM DRC), Mean: -1.073
mGluR2 [2]; log[Glutamate] (M) -4.1549
  SNAP-m2 FRET response (PAM DRC): -1.073 and -1.043 and -1.045 and -1.173
  SNAP-m2 FRET response (PAM DRC), Mean: -1.083
mGluR2 [2]; log[Glutamate] (M) -4.52288
  SNAP-m2 FRET response (PAM DRC): -1.073 and -1.028 and -1.065 and -1.205
  SNAP-m2 FRET response (PAM DRC), Mean: -1.093
mGluR2 [2]; log[Glutamate] (M) -5
  SNAP-m2 FRET response (PAM DRC): -0.9102 and -0.7407 and -0.8397 and -1.14
  SNAP-m2 FRET response (PAM DRC), Mean: -0.9075
mGluR2 [2]; log[Glutamate] (M) -5.39794
  SNAP-m2 FRET response (PAM DRC): -0.5434 and -0.4233 and -0.4506 and -0.9619
  SNAP-m2 FRET response (PAM DRC), Mean: -0.5948
mGluR2 [2]; log[Glutamate] (M) -5.82391
  SNAP-m2 FRET response (PAM DRC): -0.2581 and -0.136 and -0.1638 and -0.657
  SNAP-m2 FRET response (PAM DRC), Mean: -0.3038
mGluR2 [2]; log[Glutamate] (M) -6.52288
  SNAP-m2 FRET response (PAM DRC): -0.05434 and 0 and -0.02048 and -0.1132
  SNAP-m2 FRET response (PAM DRC), Mean: -0.047
mGluR2 [2]; log[Glutamate] (M) -7
  SNAP-m2 FRET response (PAM DRC): 0
  SNAP-m2 FRET response (PAM DRC), Mean: 0
mGluR2 [2]; log[Glutamate] (M) -7.30103
  SNAP-m2 FRET response (PAM DRC): 0
  SNAP-m2 FRET response (PAM DRC), Mean: 0
mGluR2 [2]; log[Glutamate] (M) -7.69897
  SNAP-m2 FRET response (PAM DRC): 0
  SNAP-m2 FRET response (PAM DRC), Mean: 0
mGluR2 [2]; SNAP-m2, 1 mM glutamate + 5 μM modulator, normalized to 1 mM glutamate
  Mean max response (normalized max ΔFRET): 1.07
mGluR2 [2]; SNAP-m2, 5μM modulator, (([modulator + glutamate]EC50 – [glutamate] EC50)/[glutamate] EC50) × 100
  Mean ΔPotency: -67.8391
mGluR2 [2]; SNAP-m2, 5μM modulator, ([1 mM glutamate + modulator] - [1 mM glutamate]) × 100
  Mean ΔEfficacy: 7.324
mGluR2 [2]; SNAP-m2 sensor, + 5 μM modulator
  Hill slope of glutamate titration: –1.43
mGluR2 [3]; [5]
  azi-CRD - ΔEfficacy, Mean ΔEfficacy: 56.4462
mGluR2 [3]; 5μM LY487379, single cells
  azi-CRD - ΔEfficacy, individual cell responses: 81.7927 and 91.1647 and 102.83 and 105.34 and 78.0041 and 66.6667 and 72.6804 and 69.5464 and 76.2911 and 41.9214 and 42.0188 and 53.8462 and 0 and 21.4575 and 34.4595 and 42.2449 and 30.2041 and 33.2258 and 28.7834
mGluR2 [3]; azi-CRD sensor, + 5 μM modulator
  Hill slope of glutamate titration: 0.91
mGluR2 [3]; azi-CRD, 1 mM glutamate + 5 μM modulator, normalized to 1 mM glutamate
  Mean max response (normalized max ΔFRET): 1.56
mGluR2 [3]; azi-CRD, 5μM modulator, (([modulator + glutamate]EC50 – [glutamate] EC50)/[glutamate] EC50) × 100
  Mean ΔPotency: -61.3748
mGluR2 [3]; azi-CRD, 5μM modulator, calculated from individual cell responses
  ΔPotency, individual cell: -86.3622 and -82.4274 and -82.7128 and -78.2764 and -89.1123 and -88.282 and -87.867 and -88.628 and -87.1232 and -72.2401 and -70.8565 and -64.63 and -55.982 and -66.7055 and -27.5303 and -19.9202 and -46.4693 and -21.7362 and -27.2709 and -11.7911 and -36.6107 and -57.7116
mGluR2 [3]; log[Glutamate] (M) -3
  Mean normalized FRET response, azi-CRD PAM DRC: 1.564
mGluR2 [3]; log[Glutamate] (M) -4.1549
  Mean normalized FRET response, azi-CRD PAM DRC: 1.506
mGluR2 [3]; log[Glutamate] (M) -4.52288
  Mean normalized FRET response, azi-CRD PAM DRC: 1.431
mGluR2 [3]; log[Glutamate] (M) -5
  Mean normalized FRET response, azi-CRD PAM DRC: 1.21
mGluR2 [3]; log[Glutamate] (M) -5.39794
  Mean normalized FRET response, azi-CRD PAM DRC: 0.9243
mGluR2 [3]; log[Glutamate] (M) -5.82391
  Mean normalized FRET response, azi-CRD PAM DRC: 0.548
mGluR2 [3]; log[Glutamate] (M) -6.52288
  Mean normalized FRET response, azi-CRD PAM DRC: 0.2035
mGluR2 [3]; log[Glutamate] (M) -7
  Mean normalized FRET response, azi-CRD PAM DRC: 0.1104
mGluR2 [3]; log[Glutamate] (M) -7.30103
  Mean normalized FRET response, azi-CRD PAM DRC: 0.08348
mGluR2 [3]; log[Glutamate] (M) -7.69897
  Mean normalized FRET response, azi-CRD PAM DRC: 0
mGluR2 [4]; [5]
  azi-ECL2 - ΔEfficacy, Mean ΔEfficacy: 24.615
mGluR2 [4]; 5μM modulator, (([modulator + glutamate]EC50 – [glutamate] EC50)/[glutamate] EC50) × 100
  Mean ΔPotency: -30.8994
mGluR2 [4]; 5μM modulator, single cells, (([modulator + glutamate]EC50 – [glutamate] EC50)/[glutamate] EC50) × 100
  ΔPotency, individual cell responses: -50.558 and -25.4476 and -23.8904 and -47.6382 and -34.9857 and -54.4511 and -26.0316 and -30.3706 and -10.8251 and 8.313 and -4.368 and -31.1486 and -23.7197 and -38.0027 and -24.5685 and -37.4665 and -50.1273 and -31.7846 and -24.8874 and -46.4706
mGluR2 [4]; 5μM modulator, single cells, ([1 mM glutamate + modulator] - [1 mM glutamate]) × 100
  ΔEfficacy, individual cell responses: 52.1008 and 4.706 and 3.279 and -3.644 and 40.8403 and 19.2658 and 55.7571
mGluR2 [4]; azi-ECL2, 1 mM glutamate + 5 μM modulator, normalized to 1 mM glutamate
  Mean max response (normalized max ΔFRET): 1.25
mGluR2 [4]; azi-ECL2 sensor, + 5 μM modulator
  Hill slope of glutamate titration: 0.98
mGluR2 [4]; azi-ECL2 sensor, Glutamate + 5μM LY487379, individual values (N=7)
  Live-cell FRET max response normalized to 1mM glutamate: 1.4084 and 1.193 and 1.558 and 1.521 and 1.047 and 1.033 and 0.9636
mGluR2 [4]; log[Glutamate] (M) -3
  Mean normalized azi-ECL2 FRET response: 1.246
mGluR2 [4]; log[Glutamate] (M) -4.1549
  Mean normalized azi-ECL2 FRET response: 1.162
mGluR2 [4]; log[Glutamate] (M) -4.52288
  Mean normalized azi-ECL2 FRET response: 1.05
mGluR2 [4]; log[Glutamate] (M) -5
  Mean normalized azi-ECL2 FRET response: 0.9021
mGluR2 [4]; log[Glutamate] (M) -5.39794
  Mean normalized azi-ECL2 FRET response: 0.6628
mGluR2 [4]; log[Glutamate] (M) -5.82391
  Mean normalized azi-ECL2 FRET response: 0.3586
mGluR2 [4]; log[Glutamate] (M) -6.52288
  Mean normalized azi-ECL2 FRET response: 0.0516
mGluR2 [4]; log[Glutamate] (M) -7
  Mean normalized azi-ECL2 FRET response: 0.00565
mGluR2 [4]; log[Glutamate] (M) -7.30103
  Mean normalized azi-ECL2 FRET response: 0
mGluR2 [4]; log[Glutamate] (M) -7.69897
  Mean normalized azi-ECL2 FRET response: 0
